Results as given in paper PMC12677699, “Utilizing Proteolytic‐Resistant Nano‐Short Peptide Based on Naphthyl Tail‐Anchored to Combat Bacterial Infections” (Advanced Science, 2025).
Converted amounts (≈) assume the structure as drawn. Non-standard residues stand in square brackets, D forms with d. Residues, ends and D or L forms follow the SMILES beside them. ξ: configuration not given here. 2Nal = N[C@@H](Cc1ccc2ccccc2c1)C(=O)O; Ahp(2) = CCCCC[C@H](N)C(=O)O; ξAhp(2) = CCCCCC(N)C(=O)O

Columns and labels:
E. coli 078 = assay type: cell-based, Escherichia coli
Experimental: (§1) The MIC values of the nano‐short peptides were determined according to standard protocols.^[ [63] ^] Bacterial strains were revived from cryopreservation and cultured in Mueller–Hinton broth (MHB) to logarithmic growth phase, then diluted to a final density of 0.5–1 × 10⁶ CFU mL^−1. Serial dilutions of the nano‐short peptides were prepared in 0.2% bovine serum albumin (BSA) using a 96‐well plate format. Equal volumes of peptide solutions and bacterial suspensions were combined and incubated at 37 °C for 20–22 h. Bacterial growth was assessed by measuring absorbance at 492 nm, with MHB alone (negative control) and untreated bacterial suspension (positive control) included for reference.

E. coli 25922 = assay type: cell-based, Escherichia coli
Experimental: as §1

E. coli UB1005 = assay type: cell-based, Escherichia coli
Experimental: as §1

P. aeruginosa 27853 = assay type: cell-based, Pseudomonas aeruginosa
Experimental: as §1

P. aeruginosa PAO1 = assay type: cell-based, Pseudomonas aeruginosa
Experimental: as §1

S. pullorum C7913 = assay type: cell-based
Experimental: as §1

S. typhimurium 14028 = assay type: cell-based, Salmonella typhimurium
Experimental: as §1

S. typhimurium 7731 = assay type: cell-based, Salmonella typhimurium
Experimental: as §1

S. aureus 25923 = assay type: cell-based, Staphylococcus aureus
Experimental: as §1

S. aureus 29213 = assay type: cell-based, Staphylococcus aureus
Experimental: as §1

MRSA 43300 = assay type: cell-based, Methicillin-Resistant Staphylococcus aureus
Experimental: as §1

E. faecalis 29212 = assay type: cell-based, Enterococcus faecalis
Experimental: as §1

S. epidermidis 12228 = assay type: cell-based, Staphylococcus epidermidis
Experimental: as §1

E. coli ATCC 25922 [1] = test: Serum tolerance assay (MIC after incubation with serum); assay type: cell-based, Escherichia coli; details: 4 h of incubation with various serum concentrations
Experimental: The serum stability of nano‐short peptides was evaluated by incubating peptide solutions with fetal bovine serum (FBS), which was at concentrations of 25%, 50%, and 100% (diluted in 0.2% BSA solution). Following 4 h of incubation, the antimicrobial activity was determined by measuring the MIC against the test strains.

[2] = Critical aggregation concentration, 1,8-ANS fluorescence; assay type: physicochemical; details: 1,8-ANS 1 × 10^−6 M, peptide 2-256 × 10^−6 M in deionized water, 1 h, ex 360 nm, em 420–670 nm, linear fitting of fluorescence intensities
Experimental: The self‐assembly behavior of nano‐short peptides was characterized by determining the CAC using 1,8‐ANS as a hydrophobic fluorescent probe.^[ [32] ^] Serial peptide dilutions (2‐256 × 10^−6 M in 50 µL deionized water) were prepared in 96‐well plates. 1,8‐ANS powder was solubilized in dimethylformamide (DMF) and added to the 96‐well plates (final concentration of 1 × 10^−6 M), and deionized water solution containing 1,8‐ANS was used as a blank control. After incubation for 1 h, the fluorescence emission spectra were continuously monitored with a microplate reader (Tecan Infinite200 Pro, λ excitation = 360 nm, λ emission = 420–670 nm). CAC values were determined by linear fitting of representative fluorescence intensities.

A. baumannii AB1901 = test: MIC against clinical strain; assay type: cell-based; details: Acinetobacter baumannii, AB1901, read-out: MIC, A. baumannii AB1901
Experimental: as §1

A. baumannii AB1902 = test: MIC against clinical strain; assay type: cell-based; details: Acinetobacter baumannii, AB1902, read-out: MIC, A. baumannii AB1902
Experimental: as §1

P. aeruginosa 25349 = test: MIC against clinical strain; assay type: cell-based; details: Pseudomonas aeruginosa, 25349, read-out: MIC, P. aeruginosa 25349
Experimental: as §1

S. aureus 11011 = test: MIC against clinical strain; assay type: cell-based; details: Staphylococcus aureus, 11011, read-out: MIC, S. aureus 11011
Experimental: as §1

E. coli ATCC 25922 [3] = test: Drug resistance assay, 30 serial passages; assay type: cell-based, Escherichia coli; details: E. coli ATCC 25922, 30 successive passages at sub-MIC concentrations
Experimental: (§2) The potential resistance development of nano‐short peptides was evaluated through 30 serial passages of E. coli ATCC 25922 and S. aureus ATCC 29213 in sub‐MIC conditions,^[ [38] ^] using gentamicin as control.

S. aureus ATCC 29213 = test: Drug resistance assay, 30 serial passages; assay type: cell-based, Staphylococcus aureus; details: S. aureus ATCC 29213, 30 successive passages at sub-MIC concentrations; gentamicin by day 17
Experimental: as §2

SMILES | MIC, E. coli 078 (E. coli 078) [µM] | MIC, E. coli 25922 (E. coli 25922) [µM] | MIC, E. coli UB1005 (E. coli UB1005) [µM] | MIC, P. aeruginosa 27853 (P. aeruginosa 27853) [µM] | MIC, P. aeruginosa PAO1 (P. aeruginosa PAO1) [µM] | MIC, S. pullorum C7913 (S. pullorum C7913) [µM] | MIC, S. typhimurium 14028 (S. typhimurium 14028) [µM] | MIC, S. typhimurium 7731 (S. typhimurium 7731) [µM] | MIC, S. aureus 25923 (S. aureus 25923) [µM] | MIC, S. aureus 29213 (S. aureus 29213) [µM] | MIC, MRSA 43300 (MRSA 43300) [µM] | MIC, E. faecalis 29212 (E. faecalis 29212) [µM] | MIC, S. epidermidis 12228 (S. epidermidis 12228) [µM] | critical aggregation concentration (CAC) [2] [µM] | MIC (A. baumannii AB1901) [µM] | MIC (A. baumannii AB1902) [µM] | MIC (P. aeruginosa 25349) [µM] | MIC (S. aureus 11011) [µM] | other results
N=C(N)NCCC[C@H](NC(=O)[C@H](Cc1ccc2ccccc2c1)NC(=O)[C@H](Cc1ccc2ccccc2c1)NC(=O)[C@@H](N)Cc1ccc2ccccc2c1)C(=O)N[C@H](CCCNC(=N)N)C(=O)N[C@@H](CCCNC(=N)N)C(=O)N1CCC[C@H]1C(=O)O [Peptide N3] (H-[2Nal][2Nal][2Nal]R[dR]RP-OH) | 8 (≈ 9.4 µg/mL) | 16 (≈ 18.8 µg/mL) | 8 (≈ 9.4 µg/mL) | 8 (≈ 9.4 µg/mL) | 16 (≈ 18.8 µg/mL) | 16 (≈ 18.8 µg/mL) | 32 (≈ 37.6 µg/mL) | 32 (≈ 37.6 µg/mL) | 16 (≈ 18.8 µg/mL) | 16 (≈ 18.8 µg/mL) | 16 (≈ 18.8 µg/mL) | 16 (≈ 18.8 µg/mL) | 16 (≈ 18.8 µg/mL) | 62.79 | – | – | – | – | antimicrobial capacity after serum incubation (E. coli ATCC 25922 [1]): retained their original antimicrobial capacity
CNC(C)C1CCC(N)C(OC2C(N)CC(N)C(OC3OCC(C)(O)C(NC)C3O)C2O)O1 (stereo not shown) [Gentamicin] | – | – | – | – | – | – | – | – | – | – | – | – | – | – | 2 (≈ 0.955 µg/mL) | 128 (≈ 61.1 µg/mL) | 128 (≈ 61.1 µg/mL) | 128 (≈ 61.1 µg/mL) | increase in MIC values after serial passage (E. coli ATCC 25922 [3]): 128 fold; increase in MIC values after serial passage (S. aureus ATCC 29213): 128 fold
CCCCC[C@H](NC(=O)[C@H](CCCCC)NC(=O)[C@H](CCCCC)NC(=O)[C@@H](N)CCCCC)C(=O)N[C@@H](CCCCC)C(=O)N[C@@H](CCCCC)C(=O)N[C@H](CCCNC(=N)N)C(=O)N[C@@H](CCCNC(=N)N)C(=O)N[C@@H](CCCNC(=N)N)C(=O)N1CCC[C@H]1C(=O)O [Peptide B6] (H-[Ahp(2)][Ahp(2)][Ahp(2)][Ahp(2)][Ahp(2)][Ahp(2)][dR]RRP-OH; N-terminus and C-terminus assumed) | 256 (≈ 345 µg/mL) | 256 (≈ 345 µg/mL) | 256 (≈ 345 µg/mL) | 256 (≈ 345 µg/mL) | 256 (≈ 345 µg/mL) | 256 (≈ 345 µg/mL) | 256 (≈ 345 µg/mL) | 256 (≈ 345 µg/mL) | 256 (≈ 345 µg/mL) | 256 (≈ 345 µg/mL) | 256 (≈ 345 µg/mL) | 256 (≈ 345 µg/mL) | 256 (≈ 345 µg/mL) | 3.31 | – | – | – | – | –
NC[C@H]1O[C@H](O[C@H]2[C@H](O)[C@@H](O[C@H]3O[C@H](CO)[C@@H](O)[C@H](N)[C@H]3O)[C@H](N)C[C@@H]2N)[C@H](O)[C@@H](O)[C@@H]1O [Kanamycin] | – | – | – | – | – | – | – | – | – | – | – | – | – | – | 128 (≈ 62 µg/mL) | 128 (≈ 62 µg/mL) | 128 (≈ 62 µg/mL) | 128 (≈ 62 µg/mL) | –
CCCCCC(N)C(=O)NC(CCCCC)C(=O)NC(CCCCC)C(=O)NC(CCCCC)C(=O)NC(CCCCC)C(=O)N[C@H](CCCNC(=N)N)C(=O)N[C@@H](CCCNC(=N)N)C(=O)N[C@@H](CCCNC(=N)N)C(=O)N1CCC[C@H]1C(=O)O (stereo partly shown) [Peptide B5] (H-[ξAhp(2)][ξAhp(2)][ξAhp(2)][ξAhp(2)][ξAhp(2)][dR]RRP-OH; N-terminus assumed) | 256 (≈ 312 µg/mL) | 256 (≈ 312 µg/mL) | 256 (≈ 312 µg/mL) | 256 (≈ 312 µg/mL) | 256 (≈ 312 µg/mL) | 128 (≈ 156 µg/mL) | 256 (≈ 312 µg/mL) | 256 (≈ 312 µg/mL) | 256 (≈ 312 µg/mL) | 256 (≈ 312 µg/mL) | 32 (≈ 39 µg/mL) | 256 (≈ 312 µg/mL) | 256 (≈ 312 µg/mL) | 3.34 | – | – | – | – | –
N=C(N)NCCC[C@H](NC(=O)[C@H](Cc1ccc2ccccc2c1)NC(=O)[C@H](Cc1ccc2ccccc2c1)NC(=O)[C@H](Cc1ccc2ccccc2c1)NC(=O)[C@H](Cc1ccc2ccccc2c1)NC(=O)[C@@H](N)Cc1ccc2ccccc2c1)C(=O)N[C@H](CCCNC(=N)N)C(=O)N[C@@H](CCCNC(=N)N)C(=O)N1CCC[C@H]1C(=O)O [Peptide N5] (H-[2Nal][2Nal][2Nal][2Nal][2Nal]R[dR]RP-OH) | 256 (≈ 402 µg/mL) | 256 (≈ 402 µg/mL) | 256 (≈ 402 µg/mL) | 256 (≈ 402 µg/mL) | 256 (≈ 402 µg/mL) | 256 (≈ 402 µg/mL) | 256 (≈ 402 µg/mL) | 256 (≈ 402 µg/mL) | 256 (≈ 402 µg/mL) | 256 (≈ 402 µg/mL) | 256 (≈ 402 µg/mL) | 256 (≈ 402 µg/mL) | 256 (≈ 402 µg/mL) | 11.66 | – | – | – | – | –
CC1(C)S[C@@H]2[C@H](NC(=O)Cc3ccccc3)C(=O)N2[C@H]1C(=O)O [Penicillin sodium] | – | – | – | – | – | – | – | – | – | – | – | – | – | – | 128 | 128 | 128 | 128 | –
N=C(N)NCCC[C@H](NC(=O)[C@H](Cc1ccc2ccccc2c1)NC(=O)[C@H](Cc1ccc2ccccc2c1)NC(=O)[C@H](Cc1ccc2ccccc2c1)NC(=O)[C@H](Cc1ccc2ccccc2c1)NC(=O)[C@H](Cc1ccc2ccccc2c1)NC(=O)[C@@H](N)Cc1ccc2ccccc2c1)C(=O)N[C@H](CCCNC(=N)N)C(=O)N[C@@H](CCCNC(=N)N)C(=O)N1CCC[C@H]1C(=O)O [Peptide N6] (H-[2Nal][2Nal][2Nal][2Nal][2Nal][2Nal]R[dR]RP-OH) | 256 (≈ 452 µg/mL) | 256 (≈ 452 µg/mL) | 256 (≈ 452 µg/mL) | 256 (≈ 452 µg/mL) | 256 (≈ 452 µg/mL) | 256 (≈ 452 µg/mL) | 256 (≈ 452 µg/mL) | 256 (≈ 452 µg/mL) | 256 (≈ 452 µg/mL) | 256 (≈ 452 µg/mL) | 256 (≈ 452 µg/mL) | 256 (≈ 452 µg/mL) | 256 (≈ 452 µg/mL) | 6.65 | – | – | – | – | –
